Experimental data from patent US5436269A, “Method for treating hepatitis” (Sagami Chemical Research Center, priority 1991, dated 1995).

Legend:
fulminant hepatitis = experiment: Survival of model rats with induced fulminant hepatitis (D-galactosamine hydrochloride and lipopolysaccharide); type: in vivo, Wister rats
Method: Male Wister rats of 200 g weight were processed to be model animals for inducing hepatitis. Namely, 1500 mg/kg-weight of D-galactosamine hydrochloride was intestinally administrated and, at the same time, 10 μg of lipopolysaccharide derived from E. coli 0111:B4 was injected intravenously.

in vivo = experiment: in vivo; set-up: species or system ddy-N mice; conditions: mouse
Method: Acute toxicity of ethyl docosahexaenoate was tested.
Tested animal: ddy-N mice, 5-week age, 5 male and 5 female
All tested mice were anatomically evaluated after the test.

SMILES	rats survived (fulminant hepatitis; emulsion of ethyl ester of 99% pure DHA, same experiment as Example 2, control rats died within 24 hours) [%]	LD50 (in vivo) [mg/kg]	model rats survived more than 24 hours (fulminant hepatitis; emulsion containing 10% of 99% pure DHA triglyceride, simultaneous with hepatitis inducer) [%]	induction of hepatitis (fulminant hepatitis; model rats, result in words)
CC/C=C\C/C=C\C/C=C\C/C=C\C/C=C\C/C=C\CCC(=O)OCC [ethyl docosahexaenoate]	75	> 2000		
CC/C=C\C/C=C\C/C=C\C/C=C\C/C=C\C/C=C\CCC(=O)OCC(COC(=O)CC/C=C\C/C=C\C/C=C\C/C=C\C/C=C\C/C=C\CC)OC(=O)CC/C=C\C/C=C\C/C=C\C/C=C\C/C=C\C/C=C\CC [DHA triglyceride]			67	inhibits the induction of hepatitis
